Measurements taken from PMC12892976, “Alkylation-based optimization of antifungal FPPS inhibitors yields a potent, broad-spectrum lipophilic zoledronate derivative” (mBio, 2025).
≈ marks a conversion by molar mass, not a printed value.

Columns and labels:
Aspergillus niger = assay: MIC broth microdilution (CLSI); type: cell-based; conditions: Aspergillus niger 111
Experimental: (§1) Antifungal susceptibility was determined by broth microdilution according to the CLSI guidelines described in M27-Ed4 ([16]).

[1] = system: Aspergillus frankstonensis; assay: MIC broth microdilution (CLSI); type: cell-based; conditions: Aspergillus frankstonensis DTO 341-F3
Experimental: as §1

Aspergillus felis [2] = assay: MIC broth microdilution (CLSI); type: cell-based; conditions: Aspergillus felis IHE87256683D6
Experimental: as §1

Paraphyton cookei = assay: checkerboard drug interaction (FICI, MICc);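 also: simplified diagonal checkerboard screen pairing an antifungal with an FPPS inhibitor, FICI computed under the Loewe additivity model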
Experimental: (§2) Drug interactions between antifungals and FPPS inhibitors were investigated using a simplified checkerboard diagonal screening method ([45]). […] FICIs were determined according to the Loewe additivity model ([17]).

Aspergillus lentulus [3] = assay: checkerboard drug interaction (FICI, MICc); type: cell-based;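 also: simplified diagonal checkerboard screen pairing antifungals with FPPS inhibitors, with the interaction index calculated under the Loewe additivity model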
Experimental: as §2

Nannizzia gypsea [4] = assay: MIC broth microdilution (CLSI); type: cell-based; conditions: Nannizzia gypsea R-131
Experimental: as §1

[5] = system: Trichophyton interdigitale; assay: checkerboard drug interaction (FICI, MICc);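 also: simplified diagonal checkerboard screen pairing antifungals with FPPS inhibitors, FICI values calculated under the Loewe additivity model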
Experimental: as §2

Fusarium oxysporum [6] = assay: MIC broth microdilution (CLSI); type: cell-based; conditions: Fusarium oxysporum 07-200-3012
Experimental: as §1

Nannizzia nana [7] = assay: MIC broth microdilution (CLSI); type: cell-based; conditions: Nannizzia nana R-133
Experimental: as §1

Candida tropicalis = assay: MIC broth microdilution (CLSI); type: cell-based; conditions: Candida tropicalis M230640
Experimental: as §1

Aspergillus terreus [8] = assay: checkerboard drug interaction (FICI, MICc); type: cell-based;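 also: simplified diagonal checkerboard screen pairing antifungals with FPPS inhibitors, FICI derived by the Loewe additivity model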
Experimental: as §2

[9] = system: Cryptococcus bacillisporus; assay: MIC broth microdilution (CLSI); type: cell-based; conditions: Cryptococcus bacillisporus NIH179
Experimental: as §1

Cryptococcus tetragattii = assay: MIC broth microdilution (CLSI); type: cell-based; conditions: Cryptococcus tetragattii WM779
Experimental: as §1

Rhizopus oryzae [10] = assay: MIC broth microdilution (CLSI); type: cell-based; conditions: Rhizopus oryzae 04-14-364-1703
Experimental: as §1

Nannizzia gypsea [11] = assay: checkerboard drug interaction (FICI, MICc);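 also: simplified diagonal checkerboard screen pairing antifungals with FPPS inhibitors, FICI derived using the Loewe additivity model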
Experimental: as §2

[12] = system: Cryptococcus deneoformans; assay: checkerboard drug interaction (FICI, MICc); type: cell-based;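 also: simplified diagonal checkerboard screen pairing antifungals with FPPS inhibitors, FICI calculated under the Loewe additivity model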
Experimental: as §2

Candida auris = assay: MIC broth microdilution (CLSI); type: cell-based; conditions: Candida auris CDC-0384
Experimental: as §1

Candida dubliniensis [13] = assay: checkerboard drug interaction (FICI, MICc); type: cell-based;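 also: simplified diagonal checkerboard screen pairing antifungals with FPPS inhibitors, FICI calculated under the Loewe additivity model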
Experimental: as §2

Rhizopus oryzae [14] = assay: checkerboard drug interaction (FICI, MICc); type: cell-based;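 also: simplified diagonal checkerboard screen pairing antifungals with FPPS inhibitors, FICI calculated under the Loewe additivity model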
Experimental: as §2

Epidermophyton floccosum [15] = assay: MIC broth microdilution (CLSI); type: cell-based; conditions: Epidermophyon floccosum R-113
Experimental: as §1

Epidermophyton floccosum [16] = assay: checkerboard drug interaction (FICI, MICc);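 also: simplified diagonal checkerboard screen pairing antifungals with FPPS inhibitors, FICI calculated under the Loewe additivity model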
Experimental: as §2

Trichophyton tonsurans = assay: MIC broth microdilution (CLSI); conditions: Trichophyton tonsurans R-168
Experimental: as §1

Scedosporium apiospermum = assay: MIC broth microdilution (CLSI); type: cell-based; conditions: Scedosporium apiospermum 04-16-022-2268
Experimental: as §1

Candida dubliniensis [17] = assay: MIC broth microdilution (CLSI); type: cell-based; conditions: Candida dubliniensis M230642
Experimental: as §1

Fusarium solani = assay: MIC broth microdilution (CLSI); conditions: Fusarium solani 04-16-056-1862
Experimental: as §1

Pichia kudriavzevii [18] = assay: checkerboard drug interaction (FICI, MICc); type: cell-based;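 also: antifungal plus FPPS inhibitor interactions tested in a simplified diagonal checkerboard screen, with FICI calculated under the Loewe additivity model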
Experimental: as §2

Lomentospora prolificans [19] = assay: MIC broth microdilution (CLSI); type: cell-based; conditions: Lomentospora prolificans 80-16-101-2445
Experimental: as §1

Aspergillus lentulus [20] = assay: MIC broth microdilution (CLSI); type: cell-based; conditions: Aspergillus lentulus DTO 341-G7
Experimental: as §1

Lomentospora prolificans [21] = assay: checkerboard drug interaction (FICI, MICc)
Experimental: as §2

Cryptococcus gattii = assay: MIC broth microdilution (CLSI); type: cell-based; conditions: Cryptococcus gattii PNG27
Experimental: as §1

Aspergillus felis [22] = assay: checkerboard drug interaction (FICI, MICc); type: cell-based
Experimental: as §2

Pichia kudriavzevii [23] = assay: MIC broth microdilution (CLSI); type: cell-based; conditions: Pichia kudriavzavii ATCC 6258
Experimental: Antifungal susceptibility was determined by broth microdilution according to the CLSI guidelines described in M27-Ed4 ([16]). […] MFC was determined by back-plating drug-treated cultures from MIC broths onto SDA plates. The MFC was defined as the lowest concentration from which no colonies could be cultured.

Microsporum canis = assay: MIC broth microdilution (CLSI); conditions: Microsporum canis R-232
Experimental: as §1

Aspergillus terreus [24] = assay: MIC broth microdilution (CLSI); type: cell-based; conditions: Aspergillus terreus 75-16-089-2500
Experimental: as §1

Nannizzia nana [25] = assay: checkerboard drug interaction (FICI, MICc); type: cell-based
Experimental: as §2

Fusarium oxysporum [26] = assay: checkerboard drug interaction (FICI, MICc); type: cell-based
Experimental: as §2

[27] = system: Cryptococcus bacillisporus; assay: checkerboard drug interaction (FICI, MICc); type: cell-based;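 also: interaction of antifungals with FPPS inhibitors assessed by a simplified diagonal checkerboard screen, with FICI computed under the Loewe additivity model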
Experimental: as §2

SMILES: CCC(C)n1ncn(-c2ccc(N3CCN(c4ccc(OCC5COC(Cn6cncn6)(c6ccc(Cl)cc6Cl)O5)cc4)CC3)cc2)c1=O (stereo not shown) [ITR, itraconazole]
- MIC / MEC (Aspergillus niger): 2 µg/mL (≈ 2.83 µM)
- MIC / MEC [1]: 2 µg/mL (≈ 2.83 µM)
- MIC / MEC (Aspergillus felis [2]): 2 µg/mL (≈ 2.83 µM)
- antifungal MICc (Paraphyton cookei; in combination with 10-ZOL): 0.063
- antifungal MICc (Paraphyton cookei; in combination with ZOL): 1
- antifungal MICc (Aspergillus lentulus [3]; in combination with 10-ZOL): 0.25
- antifungal MICc (Aspergillus lentulus [3]; in combination with ZOL): 0.5
- MIC / MEC (Nannizzia gypsea [4]): 2 µg/mL (≈ 2.83 µM)
- antifungal MICc ([5]; in combination with 10-ZOL): 0.5
- antifungal MICc ([5]; in combination with ZOL): 0.25
- MIC / MEC (Fusarium oxysporum [6]): 4 µg/mL (≈ 5.67 µM)
- MIC / MEC (Nannizzia nana [7]): 0.25 µg/mL (≈ 0.354 µM)
- MIC / MEC (Candida tropicalis): 0.25 µg/mL (≈ 0.354 µM)
- antifungal MICc (Aspergillus terreus [8]; in combination with 10-ZOL): 0.25
- antifungal MICc (Aspergillus terreus [8]; in combination with ZOL): 0.13
- MIC / MEC [9]: 0.06 µg/mL (≈ 0.085 µM)
- MIC / MEC (Cryptococcus tetragattii): 0.5 µg/mL (≈ 0.709 µM)
- MIC / MEC (Rhizopus oryzae [10]): 2 µg/mL (≈ 2.83 µM)
- antifungal MICc (Nannizzia gypsea [11]; in combination with 10-ZOL): 2
- antifungal MICc (Nannizzia gypsea [11]; in combination with ZOL): 0.5
- antifungal MICc ([12]; in combination with 10-ZOL): 0.063
- antifungal MICc ([12]; in combination with ZOL): 0.125
- MIC / MEC (Candida auris): 2 µg/mL (≈ 2.83 µM)
- antifungal MICc (Candida dubliniensis [13]; in combination with 10-ZOL): 0.033
- antifungal MICc (Candida dubliniensis [13]; in combination with ZOL): 0.03125
- antifungal MICc (Rhizopus oryzae [14]; in combination with 10-ZOL): 0.125
- antifungal MICc (Rhizopus oryzae [14]; in combination with ZOL): 2
- MIC / MEC (Epidermophyton floccosum [15]): 1 µg/mL (≈ 1.42 µM)
- antifungal MICc (Epidermophyton floccosum [16]; in combination with 10-ZOL): 0.5
- antifungal MICc (Epidermophyton floccosum [16]; in combination with ZOL): 0.5
- MIC / MEC (Trichophyton tonsurans): 1 µg/mL (≈ 1.42 µM)
- MIC / MEC (Scedosporium apiospermum): 8 µg/mL (≈ 11.3 µM)
- MIC / MEC (Candida dubliniensis [17]): 0.13 µg/mL (≈ 0.184 µM)
- MIC / MEC (Fusarium solani): 2 µg/mL (≈ 2.83 µM)
- antifungal MICc (Pichia kudriavzevii [18]; in combination with 10-ZOL): 1
- antifungal MICc (Pichia kudriavzevii [18]; in combination with ZOL): 0.25
- MIC / MEC (Lomentospora prolificans [19]): 4 µg/mL (≈ 5.67 µM)
- MIC / MEC (Aspergillus lentulus [20]): 2 µg/mL (≈ 2.83 µM)
- antifungal MICc (Lomentospora prolificans [21]; in combination with 10-ZOL): 1
- antifungal MICc (Lomentospora prolificans [21]; in combination with ZOL): 2
- MIC / MEC (Cryptococcus gattii): 0.25 µg/mL (≈ 0.354 µM)
- antifungal MICc (Aspergillus felis [22]; in combination with 10-ZOL): 0.5
- antifungal MICc (Aspergillus felis [22]; in combination with ZOL): 1
- MIC / MEC (Pichia kudriavzevii [23]): 1 µg/mL (≈ 1.42 µM)
- MIC / MEC (Microsporum canis): 0.5 µg/mL (≈ 0.709 µM)
- MIC / MEC (Aspergillus terreus [24]): 0.5 µg/mL (≈ 0.709 µM)
- antifungal MICc (Nannizzia nana [25]; in combination with 10-ZOL): 0.25
- antifungal MICc (Nannizzia nana [25]; in combination with ZOL): 0.13
- antifungal MICc (Fusarium oxysporum [26]; in combination with 10-ZOL): 1
- antifungal MICc (Fusarium oxysporum [26]; in combination with ZOL): 1
- antifungal MICc ([27]; in combination with 10-ZOL): 0.033
- antifungal MICc ([27]; in combination with ZOL): 0.0625
